In patent EP2649091B1, “IMMUNE RESTRICTED PEPTIDES WITH INCREASED EFFICACY” (Stichting Het Nederlands Kanker Instituut, priority 2010, dated 2012):
ALG = not defined here; PHG = not defined here

Assays:
[1] = biological target: HLA-A0201 (Homo sapiens, UniProt P04439, D140Y/D185E/D98H/E176V/E277Q/G131W/G231S/I119V/I121R/I166T/I218V/L300P/L318F/N151K/N90K/P208A/P217A/Q86G/Q94H/R138H/R169H/T345S); format: binding
[2] = system: SVYDFFVWL (TRP-2 180-188) reactive T cells; assay: T cell activation time course assay, IFNγ production (FACS), TRP-2 epitope; conditions: for % CD8+ T cells producing IFN-γ peptide concentrations in picomolar 24H 0.5 / Geometric mean IFN-γ in arbitrary fluorescence units peptide concentrations in picomolar 24H 0.5 / % CD8+ T cells producing IFN-γ peptide concentrations in picomolar 48H 0.5 / Geometric mean IFN-γ in arbitrary fluorescence units peptide concentrations in picomolar 48H 0.5: peptide 0.5 pM; for % CD8+ T cells producing IFN-γ peptide concentrations in picomolar 24H 50 / Geometric mean IFN-γ in arbitrary fluorescence units peptide concentrations in picomolar 24H 50 / % CD8+ T cells producing IFN-γ peptide concentrations in picomolar 48H 50 / Geometric mean IFN-γ in arbitrary fluorescence units peptide concentrations in picomolar 48H 50: peptide 50 pM; for % CD8+ T cells producing IFN-γ peptide concentrations in picomolar 24H 5·10^3 / Geometric mean IFN-γ in arbitrary fluorescence units peptide concentrations in picomolar 24H 5·10^3 / % CD8+ T cells producing IFN-γ peptide concentrations in picomolar 48H 5·10^3 / Geometric mean IFN-γ in arbitrary fluorescence units peptide concentrations in picomolar 48H 5·10^3: peptide 5·10^3 pM
[3] = system: HLA-A2::Mart-1(26-35) reactive T cells stimulated by T2 cells; assay: T cell activation time course assay, IFNγ production (FACS), Mart-1 epitope; format: cell-based; conditions: for % CD8+ T cells producing IFN-γ 0H / Geometric mean IFN-γ in arbitrary fluorescence units 0H: time point 0H (basal); for % CD8+ T cells producing IFN-γ 2H / Geometric mean IFN-γ in arbitrary fluorescence units 2H: time point 2H; for % CD8+ T cells producing IFN-γ 4H / Geometric mean IFN-γ in arbitrary fluorescence units 4H: time point 4H; for % CD8+ T cells producing IFN-γ 24H / Geometric mean IFN-γ in arbitrary fluorescence units 24H: time point 24H; for % CD8+ T cells producing IFN-γ 24H / Geometric mean IFN-γ in arbitrary fluorescence units 24H / % CD8+ T cells producing IFN-γ 48H / Geometric mean IFN-γ in arbitrary fluorescence units 48H: free peptide washed away; for % CD8+ T cells producing IFN-γ 48H / Geometric mean IFN-γ in arbitrary fluorescence units 48H: time point 48H

## E[2-AOC]AGIGI[4FPHE]T[OM-HS]
[1]
  % inhibition at T=4H and T=24H FP 4h: 78%
  % inhibition at T=4H and T=24H FP 24h: 66%
  IC50 Ratio: 1.9

## [CSME]AAGIGI[4-FPHE]TV
[1]
  % inhibition at T=4H and T=24H FP 4h: 63%
  % inhibition at T=4H and T=24H FP 24h: 58%

## [PHG][NVA]AGIGILT[ALG] ({PHG-NVA}-AGIGILT-{ALG}; reading uncertain; also: printed as [PHG][NVA]AGIGILT[ALG])
[1]
  % inhibition at T=4H and T=24H FP 4h: 65%
  % inhibition at T=4H and T=24H FP 24h: 64%
  IC50 Ratio: 18.9

## [am-phg][CpALA]YDFFVW[PRG]
[1]
  % inhibition at T=4H and T=24H FP 4h: 80%
  % inhibition at T=4H and T=24H FP 24h: 80%
[2]
  % CD8+ T cells producing IFN-γ peptide concentrations in picomolar 24H 0.5: 1%
  Geometric mean IFN-γ in arbitrary fluorescence units peptide concentrations in picomolar 24H 0.5: 94 arbitrary fluorescence units
  % CD8+ T cells producing IFN-γ peptide concentrations in picomolar 24H 50: 1%
  Geometric mean IFN-γ in arbitrary fluorescence units peptide concentrations in picomolar 24H 50: 69 arbitrary fluorescence units
  % CD8+ T cells producing IFN-γ peptide concentrations in picomolar 24H 5·10^3: 14%
  Geometric mean IFN-γ in arbitrary fluorescence units peptide concentrations in picomolar 24H 5·10^3: 95 arbitrary fluorescence units
  % CD8+ T cells producing IFN-γ peptide concentrations in picomolar 48H 0.5: 0%
  Geometric mean IFN-γ in arbitrary fluorescence units peptide concentrations in picomolar 48H 0.5: 76 arbitrary fluorescence units
  % CD8+ T cells producing IFN-γ peptide concentrations in picomolar 48H 50: 0%
  Geometric mean IFN-γ in arbitrary fluorescence units peptide concentrations in picomolar 48H 50: 66 arbitrary fluorescence units
  % CD8+ T cells producing IFN-γ peptide concentrations in picomolar 48H 5·10^3: 4%
  Geometric mean IFN-γ in arbitrary fluorescence units peptide concentrations in picomolar 48H 5·10^3: 76 arbitrary fluorescence units

## [PHG]AAGIGI[4-FPHE]T[NLE]
[1]
  % inhibition at T=4H and T=24H FP 4h: 63%
  % inhibition at T=4H and T=24H FP 24h: 66%
  IC50 Ratio: 6.8

## [am-phg][2-AOC]YDFFVWL
[1]
  % inhibition at T=4H and T=24H FP 4h: 94%
  % inhibition at T=4H and T=24H FP 24h: 87%
[2]
  % CD8+ T cells producing IFN-γ peptide concentrations in picomolar 24H 0.5: 0%
  Geometric mean IFN-γ in arbitrary fluorescence units peptide concentrations in picomolar 24H 0.5: 78 arbitrary fluorescence units
  % CD8+ T cells producing IFN-γ peptide concentrations in picomolar 24H 50: 12%
  Geometric mean IFN-γ in arbitrary fluorescence units peptide concentrations in picomolar 24H 50: 82 arbitrary fluorescence units
  % CD8+ T cells producing IFN-γ peptide concentrations in picomolar 24H 5·10^3: 31%
  Geometric mean IFN-γ in arbitrary fluorescence units peptide concentrations in picomolar 24H 5·10^3: 215 arbitrary fluorescence units
  % CD8+ T cells producing IFN-γ peptide concentrations in picomolar 48H 0.5: 0%
  Geometric mean IFN-γ in arbitrary fluorescence units peptide concentrations in picomolar 48H 0.5: 88 arbitrary fluorescence units
  % CD8+ T cells producing IFN-γ peptide concentrations in picomolar 48H 50: 1%
  Geometric mean IFN-γ in arbitrary fluorescence units peptide concentrations in picomolar 48H 50: 70 arbitrary fluorescence units
  % CD8+ T cells producing IFN-γ peptide concentrations in picomolar 48H 5·10^3: 30%
  Geometric mean IFN-γ in arbitrary fluorescence units peptide concentrations in picomolar 48H 5·10^3: 143 arbitrary fluorescence units

## [am-phg][2-AOC]YDFFVW[ALG]
[1]
  % inhibition at T=4H and T=24H FP 4h: 73%
  % inhibition at T=4H and T=24H FP 24h: 73%
[2]
  % CD8+ T cells producing IFN-γ peptide concentrations in picomolar 24H 0.5: 0%
  Geometric mean IFN-γ in arbitrary fluorescence units peptide concentrations in picomolar 24H 0.5: 98 arbitrary fluorescence units
  % CD8+ T cells producing IFN-γ peptide concentrations in picomolar 24H 50: 1%
  Geometric mean IFN-γ in arbitrary fluorescence units peptide concentrations in picomolar 24H 50: 69 arbitrary fluorescence units
  % CD8+ T cells producing IFN-γ peptide concentrations in picomolar 24H 5·10^3: 7%
  Geometric mean IFN-γ in arbitrary fluorescence units peptide concentrations in picomolar 24H 5·10^3: 79 arbitrary fluorescence units
  % CD8+ T cells producing IFN-γ peptide concentrations in picomolar 48H 0.5: 0%
  Geometric mean IFN-γ in arbitrary fluorescence units peptide concentrations in picomolar 48H 0.5: 76 arbitrary fluorescence units
  % CD8+ T cells producing IFN-γ peptide concentrations in picomolar 48H 50: 0%
  Geometric mean IFN-γ in arbitrary fluorescence units peptide concentrations in picomolar 48H 50: 80 arbitrary fluorescence units
  % CD8+ T cells producing IFN-γ peptide concentrations in picomolar 48H 5·10^3: 4%
  Geometric mean IFN-γ in arbitrary fluorescence units peptide concentrations in picomolar 48H 5·10^3: 71 arbitrary fluorescence units

## [CSME][NVA]AGIGILT[PRG]
[1]
  % inhibition at T=4H and T=24H FP 4h: 63%
  % inhibition at T=4H and T=24H FP 24h: 60%
  IC50 Ratio: 2.8

## [CSME][2-AOC]KDVEERV
[1]
  % inhibition at T=4H and T=24H FP 4h: 60%
  % inhibition at T=4H and T=24H FP 24h: 56%

## [CSME][2-AOC]AGIGILT[PRG]
[1]
  % inhibition at T=4H and T=24H FP 4h: 72%
  % inhibition at T=4H and T=24H FP 24h: 70%
  IC50 Ratio: 14.8

## [am-phg]LAGIGILT[PRG]
[3]; peptide 0.5 pM
  % CD8+ T cells producing IFN-γ 0H: 0%
  Geometric mean IFN-γ in arbitrary fluorescence units 0H: 94 arbitrary fluorescence units
  % CD8+ T cells producing IFN-γ 2H: 27%
  Geometric mean IFN-γ in arbitrary fluorescence units 2H: 214 arbitrary fluorescence units
  % CD8+ T cells producing IFN-γ 4H: 29%
  Geometric mean IFN-γ in arbitrary fluorescence units 4H: 345 arbitrary fluorescence units
  % CD8+ T cells producing IFN-γ 24H: 15%
  Geometric mean IFN-γ in arbitrary fluorescence units 24H: 159 arbitrary fluorescence units
  % CD8+ T cells producing IFN-γ 48H: 3%
  Geometric mean IFN-γ in arbitrary fluorescence units 48H: 103 arbitrary fluorescence units
[3]; peptide 50 pM
  % CD8+ T cells producing IFN-γ 0H: 0%
  Geometric mean IFN-γ in arbitrary fluorescence units 0H: 105 arbitrary fluorescence units
  % CD8+ T cells producing IFN-γ 2H: 22%
  Geometric mean IFN-γ in arbitrary fluorescence units 2H: 249 arbitrary fluorescence units
  % CD8+ T cells producing IFN-γ 4H: 31%
  Geometric mean IFN-γ in arbitrary fluorescence units 4H: 480 arbitrary fluorescence units
  % CD8+ T cells producing IFN-γ 24H: 28%
  Geometric mean IFN-γ in arbitrary fluorescence units 24H: 342 arbitrary fluorescence units
  % CD8+ T cells producing IFN-γ 48H: 18%
  Geometric mean IFN-γ in arbitrary fluorescence units 48H: 215 arbitrary fluorescence units

## [am-phg]AAGIGI[4-FPHE]TV
[1]
  % inhibition at T=4H and T=24H FP 4h: 62%
  % inhibition at T=4H and T=24H FP 24h: 59%
  IC50 Ratio: 2.1

## [CSME][2-AOC]AGIGILTV
[3]; peptide 0.5 pM
  % CD8+ T cells producing IFN-γ 0H: 0%
  Geometric mean IFN-γ in arbitrary fluorescence units 0H: 101 arbitrary fluorescence units
  % CD8+ T cells producing IFN-γ 2H: 27%
  Geometric mean IFN-γ in arbitrary fluorescence units 2H: 219 arbitrary fluorescence units
  % CD8+ T cells producing IFN-γ 4H: 29%
  Geometric mean IFN-γ in arbitrary fluorescence units 4H: 368 arbitrary fluorescence units
  % CD8+ T cells producing IFN-γ 24H: 18%
  Geometric mean IFN-γ in arbitrary fluorescence units 24H: 167 arbitrary fluorescence units
  % CD8+ T cells producing IFN-γ 48H: 7%
  Geometric mean IFN-γ in arbitrary fluorescence units 48H: 119 arbitrary fluorescence units
[3]; peptide 50 pM
  % CD8+ T cells producing IFN-γ 0H: 0%
  Geometric mean IFN-γ in arbitrary fluorescence units 0H: 111 arbitrary fluorescence units
  % CD8+ T cells producing IFN-γ 2H: 28%
  Geometric mean IFN-γ in arbitrary fluorescence units 2H: 249 arbitrary fluorescence units
  % CD8+ T cells producing IFN-γ 4H: 31%
  Geometric mean IFN-γ in arbitrary fluorescence units 4H: 563 arbitrary fluorescence units
  % CD8+ T cells producing IFN-γ 24H: 27%
  Geometric mean IFN-γ in arbitrary fluorescence units 24H: 397 arbitrary fluorescence units
  % CD8+ T cells producing IFN-γ 48H: 20%
  Geometric mean IFN-γ in arbitrary fluorescence units 48H: 288 arbitrary fluorescence units

## [3-PYRA]MYSDFHFI
[1]
  % inhibition at T=4H and T=24H FP 4H: 79%
  % inhibition at T=4H and T=24H FP 24H: 76%

## [CSCF3][2-AOC]YDFFVWL
[1]
  % inhibition at T=4H and T=24H FP 4H: 91%
  % inhibition at T=4H and T=24H FP 24H: 79%
